Measurements reported in the supplement of paper PMC10307832.

Key:
Assay in all cases: relative viability (nuclei count vs DMSO), 5 days (fraction); higher = more cells survive
HOP-62 = test system: HOP-62
Outline: (§1)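 Lung cancer cell lines, seeded in 1536-well plates, were treated the following day by pin tool with a single drug or with five library-drug doses (not always all listed) in √10 steps on top of a fixed anchor-drug dose. Cells were fixed and nuclei stained in one step after 5 days, and nuclei were counted. Relative viability is the nuclei count for treated wells divided by that for vehicle wells, reported as medians of duplicate plates.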

SW 1573 = test system: SW 1573
Outline: as §1

NCI-H1755 = test system: NCI-H1755
Outline: as §1

NCI-H460 = test system: NCI-H460
Outline: as §1

NCI-H2228 = test system: NCI-H2228
Outline: as §1

A-427 = test system: A-427
Outline: as §1

LXF-289 = test system: LXF-289
Outline: as §1

HCC-15 = test system: HCC-15
Outline: as §1

NCI-H647 = test system: NCI-H647
Outline: as §1

RERF-LC-KJ = test system: RERF-LC-KJ
Outline: as §1

PC-3 [JPC-3] = test system: PC-3 [JPC-3]
Outline: as §1

NCI-H1975 = test system: NCI-H1975
Outline: as §1

LC-2-ad = test system: LC-2-ad
Outline: as §1

NCI-H1734 = test system: NCI-H1734
Outline: as §1

HCC-78 = test system: HCC-78
Outline: as §1

SK-LU-1 = test system: SK-LU-1
Outline: as §1

NCI-H2126 = test system: NCI-H2126
Outline: as §1

LOU-NH91 = test system: LOU-NH91
Outline: as §1

NCI-H1792 = test system: NCI-H1792
Outline: as §1

NCI-H1915 = test system: NCI-H1915
Outline: as §1

NCI-H2347 = test system: NCI-H2347
Outline: as §1

O=C(O)c1ccc(-c2c[nH]c3ncc(-c4ccccc4)cc23)cc1C1CCCC1 + CC1(C)CCC(c2ccc(Cl)cc2)=C(CN2CCN(c3ccc(C(=O)NS(=O)(=O)c4ccc(N[C@H](CCN5CCOCC5)CSc5ccccc5)c(S(=O)(=O)C(F)(F)F)c4)cc3)CC2)C1 [Navitoclax] (partner 0.5 µM)
relative viability (HOP-62; first compound 0.04 µM): 1.05
relative viability (HOP-62; first compound 0.1265 µM): 1.13
relative viability (HOP-62; first compound 0.4 µM): 1.05
relative viability (HOP-62; first compound 1.265 µM): 0.76
relative viability (SW 1573; first compound 0.04 µM): 1.02
relative viability (SW 1573; first compound 0.1265 µM): 1.22
relative viability (SW 1573; first compound 0.4 µM): 1.05
relative viability (SW 1573; first compound 1.265 µM): 0.619
relative viability (NCI-H1755; first compound 0.04 µM): 0.98
relative viability (NCI-H1755; first compound 0.1265 µM): 1.05
relative viability (NCI-H1755; first compound 0.4 µM): 1.03
relative viability (NCI-H1755; first compound 1.265 µM): 0.927
relative viability (NCI-H460; first compound 0.04 µM): 1.08
relative viability (NCI-H460; first compound 0.1265 µM): 1.18
relative viability (NCI-H460; first compound 0.4 µM): 1.14
relative viability (NCI-H460; first compound 1.265 µM): 0.962
relative viability (NCI-H2228; first compound 0.04 µM): 0.927
relative viability (NCI-H2228; first compound 0.1265 µM): 0.778
relative viability (NCI-H2228; first compound 0.4 µM): 0.98
relative viability (NCI-H2228; first compound 1.265 µM): 0.793
relative viability (A-427; first compound 0.04 µM): 1.02
relative viability (A-427; first compound 0.1265 µM): 0.936
relative viability (A-427; first compound 0.4 µM): 0.868
relative viability (A-427; first compound 1.265 µM): 0.708
relative viability (LXF-289; first compound 0.04 µM): 0.936
relative viability (LXF-289; first compound 0.1265 µM): 0.883
relative viability (LXF-289; first compound 0.4 µM): 0.658
relative viability (LXF-289; first compound 1.265 µM): 0.48
relative viability (HCC-15; first compound 0.04 µM): 0.697
relative viability (HCC-15; first compound 0.1265 µM): 0.746
relative viability (HCC-15; first compound 0.4 µM): 0.662
relative viability (HCC-15; first compound 1.265 µM): 0.373
relative viability (NCI-H647; first compound 0.04 µM): 1.1
relative viability (NCI-H647; first compound 0.1265 µM): 1.13
relative viability (NCI-H647; first compound 0.4 µM): 1.04
relative viability (NCI-H647; first compound 1.265 µM): 0.713
relative viability (RERF-LC-KJ; first compound 0.04 µM): 1.05
relative viability (RERF-LC-KJ; first compound 0.1265 µM): 1.24
relative viability (RERF-LC-KJ; first compound 0.4 µM): 0.842
relative viability (RERF-LC-KJ; first compound 1.265 µM): 0.772
relative viability (PC-3 [JPC-3]; first compound 0.04 µM): 0.817
relative viability (PC-3 [JPC-3]; first compound 0.1265 µM): 0.886
relative viability (PC-3 [JPC-3]; first compound 0.4 µM): 0.7
relative viability (PC-3 [JPC-3]; first compound 1.265 µM): 0.564
relative viability (NCI-H1975; first compound 0.04 µM): 1.13
relative viability (NCI-H1975; first compound 0.1265 µM): 1.25
relative viability (NCI-H1975; first compound 0.4 µM): 1.1
relative viability (NCI-H1975; first compound 1.265 µM): 1.17
relative viability (LC-2-ad; first compound 0.04 µM): 0.399
relative viability (LC-2-ad; first compound 0.1265 µM): 0.5
relative viability (LC-2-ad; first compound 0.4 µM): 0.415
relative viability (LC-2-ad; first compound 1.265 µM): 0.173
relative viability (NCI-H1734; first compound 0.04 µM): 0.706
relative viability (NCI-H1734; first compound 0.1265 µM): 0.916
relative viability (NCI-H1734; first compound 0.4 µM): 0.878
relative viability (NCI-H1734; first compound 1.265 µM): 0.686
relative viability (HCC-78; first compound 0.04 µM): 0.849
relative viability (HCC-78; first compound 0.1265 µM): 0.904
relative viability (HCC-78; first compound 0.4 µM): 0.802
relative viability (HCC-78; first compound 1.265 µM): 0.542
relative viability (SK-LU-1; first compound 0.04 µM): 0.982
relative viability (SK-LU-1; first compound 0.1265 µM): 1.01
relative viability (SK-LU-1; first compound 0.4 µM): 0.697
relative viability (SK-LU-1; first compound 1.265 µM): 0.482
relative viability (NCI-H2126; first compound 0.04 µM): 0.892
relative viability (NCI-H2126; first compound 0.1265 µM): 0.875
relative viability (NCI-H2126; first compound 0.4 µM): 0.745
relative viability (NCI-H2126; first compound 1.265 µM): 0.685
relative viability (LOU-NH91; first compound 0.04 µM): 0.759
relative viability (LOU-NH91; first compound 0.1265 µM): 0.73
relative viability (LOU-NH91; first compound 0.4 µM): 0.68
relative viability (LOU-NH91; first compound 1.265 µM): 0.541
relative viability (NCI-H1792; first compound 0.04 µM): 0.516
relative viability (NCI-H1792; first compound 0.1265 µM): 0.728
relative viability (NCI-H1792; first compound 0.4 µM): 0.661
relative viability (NCI-H1792; first compound 1.265 µM): 0.588
relative viability (NCI-H1915; first compound 0.04 µM): 0.769
relative viability (NCI-H1915; first compound 0.1265 µM): 0.77
relative viability (NCI-H1915; first compound 0.4 µM): 0.609
relative viability (NCI-H1915; first compound 1.265 µM): 0.502
relative viability (NCI-H2347; first compound 0.04 µM): 0.778
relative viability (NCI-H2347; first compound 0.1265 µM): 0.821
relative viability (NCI-H2347; first compound 0.4 µM): 0.761
relative viability (NCI-H2347; first compound 1.265 µM): 0.612
